This is an account of results in ChEMBL document CHEMBL4251631, “New antiglioma zwitterionic pronucleotides with an FdUMP framework” (Eur J Med Chem, 2018).

A short description of data set [1]: Half life in RPMI/FBS cell culture media 9:1 (v/v) at 2 mM by HPLC analysis. It is filed as physicochemical. The note with it: cattle.
The nature of data set [2]: Half life in human serum at 2 mM by HPLC analysis. It is filed as ADME, cell-free.
Data set [3] relates to MRC5. The experiment in a line: Cytostatic activity against human MRC5 cells assessed as reduction in cell viability after 48 hrs by MTT assay. It is filed as functional, cell-based. The note with it: MRC5, 48 h. Background: Tetrazolium dyes change colour on reduction, which living cells bring about.
The test system of data set [4] is HeLa. The experiment in a line: Cytostatic activity against human HeLa cells assessed as reduction in cell viability after 48 hrs by MTT assay. It is filed as functional, cell-based.
The test system of data set [5] is T47D. The experiment in a line: Cytostatic activity against human T47D cells assessed as reduction in cell viability after 48 hrs by MTT assay. It is filed as functional, cell-based.
In data set [6] the test system is T98G. The experiment in a line: Cytostatic activity against human T98G cells assessed as reduction in cell viability after 48 hrs by MTT assay. It is filed as functional, cell-based.
Data set [7] has as its system U-118-MG. The experiment in a line: Cytostatic activity against human U118MG cells assessed as reduction in cell viability after 48 hrs by MTT assay. It is filed as functional, cell-based.
The nature of data set [8]: Selectivity index, ratio of IC50 for human MRC5 cells to IC50 for human T98G cells. It is filed as toxicity. The note with it: MRC5 cells and T98G cells, read-out: Ratio IC50.
Data set [9] can be described thus: Selectivity index, ratio of IC50 for human MRC5 cells to IC50 for human U118MG cells. It is filed as toxicity. The note with it: MRC5 cells and U118MG cells, read-out: Ratio IC50.
The test system of data set [10] is U-87 MG. The experiment in a line: Cytostatic activity against human U87MG cells assessed as reduction in cell viability after 48 hrs by MTT assay. It is filed as functional, cell-based, U-87MG ATCC.
A short description of data set [11]: Selectivity index, ratio of IC50 for human MRC5 cells to IC50 for human U87MG cells. It is filed as toxicity. The note with it: MRC5 cells and U87MG cells, read-out: Ratio IC50.
For data set [12], the system named is Caco-2. The experiment in a line: Cytostatic activity against human Caco2 cells assessed as reduction in cell viability after 48 hrs by MTT assay. It is filed as functional, cell-based. The note with it: Caco-2, 48 h.
A short description of data set [13]: Stability in RPMI cell culture media at 2 mM by HPLC analysis. The note with it: 2000 µM. It is filed as physicochemical.
A short description of data set [14]: Half life in RPMI/FBS cell culture media 9:1 (v/v) assessed as cumulative concentration of metabolites of known anticancer activity at 2 mM by HPLC analysis. It is filed as ADME. The note with it: 2000 µM.

A word on the half-life: it is the time needed for the level to fall by half in the phase considered. Read a high half-life as slow decline. By IC50 is commonly meant the concentration at which inhibition is half-maximal. Consider `CCOC(=O)C[n+]1cccc2cc(OP(=O)([O-])OC[C@H]3O[C@@H](n4cc(F)c(=O)[nH]c4=O)C[C@@H]3OC(=O)c3ccccc3)ccc21`, for which the half-life at 2000 µM in data set [1] was 2 h; in data set [2] it was 5.9 h. Besides, the IC50 was 34.9 µM in [3]; 0.6 µM in [4]; 21.6 µM in [5]; 13 µM in data set [6]; 0.76 µM in [7]; 0.53 µM in data set [10]. For the same compound, the IC50 in [12] amounted to 28.9 µM. The selectivity ratio was determined as 3 in data set [8], 46 in data set [9] and 66 in data set [11]. The Stability entry in data set [13] is recorded as “Stable”. Further, the t1/2 in data set [14] was 15.6 h.

For the compound `CCOC(=O)C[n+]1cccc(OP(=O)([O-])OC[C@H]2O[C@@H](n3cc(F)c(=O)[nH]c3=O)C[C@@H]2OC(=O)c2ccccc2)c1`, the half-life at 2000 µM was 1.1 h in data set [1] and 1.4 h in [2]. The IC50 in data set [3] came to 8.6 µM; in data set [4] it was 6.1 µM; in data set [5], 12.7 µM; in [6], 1.6 µM; in data set [7] it was 1.54 µM; in [10] it was 0.58 µM. The IC50 in data set [12] stood at 2.62 µM. Moreover, the selectivity ratio in [8] stood at 5; in data set [9] it was 6; in data set [11] it was 15. Further, in data set [13], the Stability result is listed as “Stable”. Besides, the t1/2 in data set [14] stood at 8.6 h.

Take `C[n+]1cccc(OP(=O)([O-])OC[C@H]2O[C@@H](n3cc(F)c(=O)[nH]c3=O)C[C@@H]2OC(=O)c2ccccc2)c1`: the half-life at 2000 µM was 14.8 h in data set [1] and 37.3 h in [2]. Moreover, the IC50 in data set [3] is 5.75 µM; in data set [4], 1.26 µM; in data set [5] it was 3.91 µM; in data set [6] it was 3.48 µM; in data set [7] it was 3.15 µM; in data set [10] it was 0.59 µM. Also, the IC50 in data set [12] came to 1.38 µM. Further, the selectivity ratio was 2 in data set [8], 2 in data set [9] and 10 in data set [11]. Also, in data set [13], the Stability entry was “Stable”.

Take `C[N+](C)(C)CCOP(=O)([O-])OC[C@H]1O[C@@H](n2cc(F)c(=O)[nH]c2=O)C[C@@H]1OC(=O)c1ccccc1`: the half-life at 2000 µM is 20 h in data set [1] and 116 h in data set [2]. The IC50 amounted to 1.3 µM in data set [3]; 3.6 µM in data set [4]; 39.6 µM in data set [5]; 24.7 µM in data set [6]; 7.54 µM in data set [7]; 1.79 µM in data set [10]. For the same compound, the IC50 in [12] is 8.12 µM. Also, the selectivity ratio in data set [8], in data set [9] and in data set [11] was less than 1 throughout. Moreover, in [13], the Stability entry is “Stable”.
